Legend:
PTPN2 (i.e., TC-PTP) = molecular target: T1, PTPN2 (i.e., TC-PTP) (Homo sapiens, UniProt P17706); test: Phosphatase activity assay (DiFMUP substrate), PTPN2; format: biochemical; conditions: compounds binned ≤1 uM or >1 uM
T1 sequence (P17706 1-415): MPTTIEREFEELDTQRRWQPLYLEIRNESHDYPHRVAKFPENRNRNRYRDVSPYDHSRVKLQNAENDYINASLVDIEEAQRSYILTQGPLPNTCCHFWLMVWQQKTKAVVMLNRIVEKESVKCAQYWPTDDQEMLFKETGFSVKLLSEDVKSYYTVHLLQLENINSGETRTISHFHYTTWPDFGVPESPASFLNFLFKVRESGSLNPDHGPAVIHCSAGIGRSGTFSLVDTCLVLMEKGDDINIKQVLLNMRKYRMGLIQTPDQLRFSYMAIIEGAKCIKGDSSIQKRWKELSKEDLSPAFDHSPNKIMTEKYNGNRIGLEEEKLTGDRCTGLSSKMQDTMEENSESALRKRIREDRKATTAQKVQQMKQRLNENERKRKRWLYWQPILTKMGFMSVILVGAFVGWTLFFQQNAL
Method in brief: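 Enzyme (e.g. PTPN2 0.025 ng/ul) mixed about 2 min with compound at 10 serial concentrations in 50 mM HEPES pH 7.5, 150 mM NaCl, 0.5 mM EDTA, 1 mM DTT, 0.001% Tween-20 at room temperature. DiFMUP added at each enzyme's Km (about 45 μM for PTPN2). DiFMU fluorescence (ex 360/em 450 nm) followed 15-30 min; IC50 from 4-parameter fit of rates.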

PTPN1 (i.e., PTP1B) = molecular target: T2, PTPN1 (i.e., PTP1B) (Homo sapiens, UniProt P18031); test: Phosphatase activity assay (DiFMUP substrate), PTP1B; format: biochemical; conditions: compounds binned ≤1 uM or >1 uM
T2 sequence (P18031 1-435): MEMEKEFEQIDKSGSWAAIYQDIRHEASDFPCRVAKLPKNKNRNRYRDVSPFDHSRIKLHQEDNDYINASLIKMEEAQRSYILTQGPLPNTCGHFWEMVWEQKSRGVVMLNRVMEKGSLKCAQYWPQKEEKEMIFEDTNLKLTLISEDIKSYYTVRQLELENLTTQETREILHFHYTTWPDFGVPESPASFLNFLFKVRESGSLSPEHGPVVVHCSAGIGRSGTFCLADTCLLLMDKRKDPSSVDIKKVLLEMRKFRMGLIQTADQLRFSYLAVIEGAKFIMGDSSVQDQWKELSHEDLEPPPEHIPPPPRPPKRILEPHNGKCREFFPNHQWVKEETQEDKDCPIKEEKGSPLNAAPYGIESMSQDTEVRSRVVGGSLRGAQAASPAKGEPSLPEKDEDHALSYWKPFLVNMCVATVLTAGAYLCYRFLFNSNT
Method in brief: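 Continuous fluorogenic readout of DiFMUP dephosphorylation at room temperature, substrate set at Km for each phosphatase (about 45 μM in the PTPN2 assay). The buffer contains 1 mM DTT and 0.001% Tween-20, pH 7.5.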

Row | IC50 (PTPN2 (i.e., TC-PTP)) | IC50 (PTPN1 (i.e., PTP1B)) | SMILES
1 | ≤ 1000 nM | ≤ 1000 nM | CN(C)C1CC=C(c2ccc(O)c(N3CC(=O)NS3(=O)=O)c2F)C1 (centres unmarked) [Compound 301, 5-(3-(4-(dimethylamino)cyclopent-1-en-1-yl)-2-fluoro-6-hydroxyphenyl)-1,2,5-thiadiazolidin-3-one 1,1-dioxide]
2 | ≤ 1000 nM | ≤ 1000 nM | O=C1CN(c2c(O)ccc(-c3cn(C4CCCC4)cn3)c2F)S(=O)(=O)N1 [Compound 302, 5-(3-(1-cyclopentyl-1H-imidazol-4-yl)-2-fluoro-6-hydroxyphenyl)-1,2,5-thiadiazolidin-3-one 1,1-dioxide]
3 | ≤ 1000 nM | ≤ 1000 nM | O=C1CN(c2c(O)ccc(-c3cn(-c4cc(F)ccc4F)cn3)c2F)S(=O)(=O)N1 [Compound 303, 5-(3-(1-(2,5-difluorophenyl)-1H-imidazol-4-yl)-2-fluoro-6-hydroxyphenyl)-1,2,5-thiadiazolidin-3-one 1,1-dioxide]
4 | ≤ 1000 nM | ≤ 1000 nM | CC1CCC(n2cc(-c3ccc(O)c(N4CC(=O)NS4(=O)=O)c3F)cn2)CC1 (centres unmarked) [Compound 304, 5-(2-fluoro-6-hydroxy-3-(1-(4-methylcyclohexyl)-1H-pyrazol-4-yl)phenyl)-1,2,5-thiadiazolidin-3-one 1,1-dioxide]
5 | ≤ 1000 nM | ≤ 1000 nM | N#C[C@H]1CC[C@H](n2cc(-c3ccc(O)c(N4CC(=O)NS4(=O)=O)c3F)cn2)CC1 [Compound 305, (1r,4r)-4-(4-(3-(1,1-dioxido-4-oxo-1,2,5-thiadiazolidin-2-yl)-2-fluoro-4-hydroxyphenyl)-1H-pyrazol-1-yl)cyclohexane-1-carbonitrile]
6 | ≤ 1000 nM | ≤ 1000 nM | O=C1CN(c2c(O)ccc(-c3cn(C4CCC(F)CC4)cn3)c2F)S(=O)(=O)N1 (centres unmarked) [Compound 306, 5-(2-fluoro-3-(1-(4-fluorocyclohexyl)-1H-imidazol-4-yl)-6-hydroxyphenyl)-1,2,5-thiadiazolidin-3-one 1,1-dioxide]
7 | ≤ 1000 nM | ≤ 1000 nM | O=C1CN(c2c(O)ccc(-c3cnn(CC4(O)CCC4)c3)c2F)S(=O)(=O)N1 [Compound 307, 5-(2-fluoro-6-hydroxy-3-(1-((1-hydroxycyclobutyl)methyl)-1H-pyrazol-4-yl)phenyl)-1,2,5-thiadiazolidin-3-one 1,1-dioxide]
8 | ≤ 1000 nM | ≤ 1000 nM | NCC1CCCN1c1cc(-c2ccc(O)c(N3CC(=O)NS3(=O)=O)c2F)[nH]n1 (centres unmarked) [Compound 308, 5-(3-(3-(2-(aminomethyl)pyrrolidin-1-yl)-1H-pyrazol-5-yl)-2-fluoro-6-hydroxyphenyl)-1,2,5-thiadiazolidin-3-one 1,1-dioxide]
9 | ≤ 1000 nM | ≤ 1000 nM | Cc1noc(C)c1Cn1cc(-c2ccc(O)c(N3CC(=O)NS3(=O)=O)c2F)cn1 [Compound 309, 5-(3-(1-((3,5-dimethylisoxazol-4-yl)methyl)-1H-pyrazol-4-yl)-2-fluoro-6-hydroxyphenyl)-1,2,5-thiadiazolidin-3-one 1,1-dioxide]
10 | ≤ 1000 nM | ≤ 1000 nM | CN1CC(n2cc(-c3ccc(O)c(N4CC(=O)NS4(=O)=O)c3F)cn2)C1 [Compound 310, 5-(2-fluoro-6-hydroxy-3-(1-(1-methylazetidin-3-yl)-1H-pyrazol-4-yl)phenyl)-1,2,5-thiadiazolidin-3-one 1,1-dioxide]
11 | ≤ 1000 nM | ≤ 1000 nM | Cn1cc(-c2ccc(O)c(N3CC(=O)NS3(=O)=O)c2Cl)cn1 [Compound 311, 5-(2-chloro-6-hydroxy-3-(1-methyl-1H-pyrazol-4-yl)phenyl)-1,2,5-thiadiazolidin-3-one 1,1-dioxide]
12 | ≤ 1000 nM | ≤ 1000 nM | C=Cc1cc(-c2ccc(O)c(N3CC(=O)NS3(=O)=O)c2F)[nH]n1 [Compound 312, 5-(2-fluoro-6-hydroxy-3-(3-vinyl-1H-pyrazol-5-yl)phenyl)-1,2,5-thiadiazolidin-3-one 1,1-dioxide]
13 | ≤ 1000 nM | ≤ 1000 nM | N#CC1(Cn2cc(-c3ccc(O)c(N4CC(=O)NS4(=O)=O)c3F)cn2)CCC1 [Compound 313, 1-((4-(3-(1,1-dioxido-4-oxo-1,2,5-thiadiazolidin-2-yl)-2-fluoro-4-hydroxyphenyl)-1H-pyrazol-1-yl)methyl)cyclobutane-1-carbonitrile]
14 | ≤ 1000 nM | ≤ 1000 nM | O=C1CN(c2c(O)ccc(-c3[nH]nc(C4CC4)c3F)c2F)S(=O)(=O)N1 [Compound 314, 5-(3-(3-cyclopropyl-4-fluoro-1H-pyrazol-5-yl)-2-fluoro-6-hydroxyphenyl)-1,2,5-thiadiazolidin-3-one 1,1-dioxide]
15 | ≤ 1000 nM | ≤ 1000 nM | O=C1CN(c2c(O)ccc(C3=CCC(NCC4CC4)CC3)c2F)S(=O)(=O)N1 (centres unmarked) [Compound 315, 5-(4′-((cyclopropylmethyl)amino)-2-fluoro-4-hydroxy-2′,3′,4′,5′-tetrahydro-[1,1′-biphenyl]-3-yl)-1,2,5-thiadiazolidin-3-one 1,1-dioxide]
16 | ≤ 1000 nM | ≤ 1000 nM | O=C1CN(c2c(O)ccc(C3=CCC(NS(=O)(=O)C4CC4)CC3)c2F)S(=O)(=O)N1 (centres unmarked) [Compound 317, N-(3′-(1,1-dioxido-4-oxo-1,2,5-thiadiazolidin-2-yl)-2′-fluoro-4′-hydroxy-2,3,4,5-tetrahydro-[1,1′-biphenyl]-4-yl)cyclopropanesulfonamide]
17 | ≤ 1000 nM | ≤ 1000 nM | O=C1CN(c2c(O)ccc(-c3cn(-c4ccc(C(F)(F)F)cc4)cn3)c2F)S(=O)(=O)N1 [Compound 318, 5-(2-fluoro-6-hydroxy-3-(1-(4-(trifluoromethyl)phenyl)-1H-imidazol-4-yl)phenyl)-1,2,5-thiadiazolidin-3-one 1,1-dioxide]
18 | ≤ 1000 nM | ≤ 1000 nM | Cn1nc(-c2ccc(O)c(N3CC(=O)NS3(=O)=O)c2F)cc1C1CC1(F)F (centres unmarked) [Compound 319, 5-(3-(5-(2,2-difluorocyclopropyl)-1-methyl-1H-pyrazol-3-yl)-2-fluoro-6-hydroxyphenyl)-1,2,5-thiadiazolidin-3-one 1,1-dioxide]
19 | ≤ 1000 nM | ≤ 1000 nM | O=C1CN(c2c(O)ccc(-c3ccc(NS(=O)(=O)C4CC4)nc3)c2F)S(=O)(=O)N1 [Compound 320, N-(5-(3-(1,1-dioxido-4-oxo-1,2,5-thiadiazolidin-2-yl)-2-fluoro-4-hydroxyphenyl)pyridin-2-yl)cyclopropanesulfonamide]
20 | ≤ 1000 nM | ≤ 1000 nM | O=C1CN(c2c(O)ccc(-c3cc(N4CCC5(CCCN5)C4)n[nH]3)c2F)S(=O)(=O)N1 (centres unmarked) [Compound 321, 5-(3-(3-(1,7-diazaspiro[4.4]nonan-7-yl)-1H-pyrazol-5-yl)-2-fluoro-6-hydroxyphenyl)-1,2,5-thiadiazolidin-3-one 1,1-dioxide]
21 | ≤ 1000 nM | ≤ 1000 nM | NC1CCN(c2cc(-c3ccc(O)c(N4CC(=O)NS4(=O)=O)c3F)[nH]n2)C1 (centres unmarked) [Compound 322, 5-(3-(3-(3-aminopyrrolidin-1-yl)-1H-pyrazol-5-yl)-2-fluoro-6-hydroxyphenyl)-1,2,5-thiadiazolidin-3-one 1,1-dioxide]

Row | SMILES | IC50 (PTPN2 (i.e., TC-PTP)) | IC50 (PTPN1 (i.e., PTP1B))
22 | O=C1CN(c2c(O)ccc(C3=CCN(C4CC4)CC3)c2F)S(=O)(=O)N1 [Compound 316, 5-(3-(1-cyclopropyl-1,2,3,6-tetrahydropyridin-4-yl)-2-fluoro-6-hydroxyphenyl)-1,2,5-thiadiazolidin-3-one 1,1-dioxide] | ≤ 1000 nM | ≤ 1000 nM
